Experimental data as given in patent US7704995B2 (Exelixis, Inc., priority 2003, dated 2010).

Key:
Experiment in all cases: Kinase specificity assay (33P phosphoryl transfer, LCCA or AlphaScreen)
Assay type in all cases: biochemical
Cdc2 = Cdc2 (Homo sapiens, UniProt P06493); settings: ATP close to KM; read-out: Cdc2 inhibition, IC50
Procedure: (§1) Kinase activity and compound inhibition are investigated using one or more of the three assay formats described below. The ATP concentrations for each assay are selected to be close to the Michaelis-Menten constant (KM) for each individual kinase. Dose-response experiments are performed at 10 different inhibitor concentrations in a 384-well plate format. The data are fitted to the following four-parameter equation: Y=Min+(Max−Min)/(1+(X/IC50)^H) where Y is the observed signal, X is the inhibitor concentration, Min is the background signal in the absence of enzyme (0% enzyme activity), Max is the signal in the absence of inhibitor (100% enzyme activity), IC50 is the inhibitor concentration at 50% enzyme inhibition and H represents the empirical Hill's slope to measure the cooperativity. Typically H is close to unity. ^33P Phosphoryl Transfer Assay:
(§2) Greiner 384-well white, clear bottom, high binding plates are coated with 2 μg/well of protein or peptide substrate in a 50 μL volume overnight at ambient temperature. The coating buffer typically contains 40 μg/mL substrate, 22.5 mM Na2CO3, 27.5 mM NaHCO3, 150 mM NaCl and 3 mM NaN3. The coating solution is aspirated and the plates are washed once with 50 μL of assay buffer and padded dry. Subsequently compounds and enzymes are mixed with γ^33P-ATP (3.3 μCi/nmol) in a total volume of 20 uL in suitable assay buffers. The mixture is incubated at ambient temperature for 1.5-2.5 hrs and terminated by aspiration using a Molecular Devices EMBLA 96-head plate washer. The plates are subsequently washed 6-12 times with PBST or TBS buffer. Scintillation fluid (50 μl/well) is then added, the plates are sealed and activity assessed by liquid scintillation spectrometry using a Perkin Elmer MicroBeta TriLux.
(§3) In the LCCA assays, kinase activity is measured as the percent ATP consumed following the kinase reaction using luciferase-luciferin-coupled chemiluminescence. Greiner 384-well white, clear bottom, medium binding plates are used for LCCA. Briefly, the kinase reaction is initiated by mixing compounds, ATP and kinase in a 20 uL volume. The mixture is incubated at ambient temperature for 2-4 hrs. At the end of the kinase reaction, a 20 uL luciferase-luciferin mix is added and the chemiluminescent signal is read using a Wallac Victor^2 reader. The luciferase-luciferin mix consists of 50 mM HEPES, pH 7.8, 8.5 ug/mL oxalic acid (pH 7.8), 5 (or 50) mM DTT, 0.4% Triton X-100, 0.25 mg/mL coenzyme A, 63 uM AMP, 28 ug/mL luciferin and 40,000 units of light/mL luciferase. For the LCCA assays, total ATP consumption has been standardized to 25-45% and the IC50 values correlates well with those determined by radiometric assays.
(§4) AlphaScreen technology is a proximity assay which utilizes the increase in fluorescent signal when donor and acceptor beads are close in proximity. Biotinylated poly(Glu,Tyr) 4:1 is used as the kinase substrate, in conjunction with streptavidin-coated donor beads and anti-phosphortyrosine antibody PY100-coated acceptor beads. Upon phosphorylation, the peptide substrate can bind to both donor and acceptor beads giving rise to an increase in fluorescence. Compounds, ATP, biotinylated poly(Glu, Tyr) and kinases are mixed in a volume of 20 uL for 1 hr at ambient temperature using Greiner 384-well white clear bottom medium binding plates. Following incubation a 10 uL solution containing […] AlphaScreen beads, 75 mM Hepes, pH 7.4, 300 mM NaCl, 120 mM EDTA, 0.3% BSA and 0.03% Tween-20 is added to each well. After 2-16 hr incubation of the beads, plates are read in a Perkin Elmer AlphaQuest reader. The IC50 values correlates well with those of radiometric assays.

MAP4K3 = molecular target: T1, MAP4K3 (Homo sapiens, UniProt Q8IVH8); settings: ATP close to KM; read-out: MAP4K3 inhibition, IC50
T1 sequence (Q8IVH8 1-894): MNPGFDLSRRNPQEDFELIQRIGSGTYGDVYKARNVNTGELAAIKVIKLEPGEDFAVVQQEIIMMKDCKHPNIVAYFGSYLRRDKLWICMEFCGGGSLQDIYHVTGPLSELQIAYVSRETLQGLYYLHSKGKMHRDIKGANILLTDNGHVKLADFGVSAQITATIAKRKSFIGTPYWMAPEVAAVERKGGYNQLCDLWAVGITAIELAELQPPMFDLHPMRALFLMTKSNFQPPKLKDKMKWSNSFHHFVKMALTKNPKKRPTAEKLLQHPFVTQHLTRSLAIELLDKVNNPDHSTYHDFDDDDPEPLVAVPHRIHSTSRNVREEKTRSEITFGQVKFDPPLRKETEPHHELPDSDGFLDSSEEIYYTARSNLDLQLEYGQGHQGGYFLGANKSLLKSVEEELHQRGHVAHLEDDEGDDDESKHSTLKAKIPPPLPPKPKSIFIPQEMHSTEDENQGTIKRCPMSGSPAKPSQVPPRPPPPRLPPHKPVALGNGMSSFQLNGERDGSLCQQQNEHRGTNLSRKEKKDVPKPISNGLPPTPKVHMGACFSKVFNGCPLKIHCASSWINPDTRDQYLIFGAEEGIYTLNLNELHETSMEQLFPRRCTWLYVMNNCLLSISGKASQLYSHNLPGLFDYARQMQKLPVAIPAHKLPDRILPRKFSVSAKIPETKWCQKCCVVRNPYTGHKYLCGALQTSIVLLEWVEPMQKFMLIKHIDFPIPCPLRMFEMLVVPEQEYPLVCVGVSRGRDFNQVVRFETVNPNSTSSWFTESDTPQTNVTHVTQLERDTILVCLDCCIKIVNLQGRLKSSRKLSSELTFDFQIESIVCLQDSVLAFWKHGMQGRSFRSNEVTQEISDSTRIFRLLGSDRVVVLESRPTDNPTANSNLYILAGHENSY
Procedure: as §1, §2, §3, §4

EGFR = EGFR (Homo sapiens, UniProt P00533); settings: ATP close to KM; read-out: EGFR inhibition, IC50
EGFR, sequence (P00533 25-1210): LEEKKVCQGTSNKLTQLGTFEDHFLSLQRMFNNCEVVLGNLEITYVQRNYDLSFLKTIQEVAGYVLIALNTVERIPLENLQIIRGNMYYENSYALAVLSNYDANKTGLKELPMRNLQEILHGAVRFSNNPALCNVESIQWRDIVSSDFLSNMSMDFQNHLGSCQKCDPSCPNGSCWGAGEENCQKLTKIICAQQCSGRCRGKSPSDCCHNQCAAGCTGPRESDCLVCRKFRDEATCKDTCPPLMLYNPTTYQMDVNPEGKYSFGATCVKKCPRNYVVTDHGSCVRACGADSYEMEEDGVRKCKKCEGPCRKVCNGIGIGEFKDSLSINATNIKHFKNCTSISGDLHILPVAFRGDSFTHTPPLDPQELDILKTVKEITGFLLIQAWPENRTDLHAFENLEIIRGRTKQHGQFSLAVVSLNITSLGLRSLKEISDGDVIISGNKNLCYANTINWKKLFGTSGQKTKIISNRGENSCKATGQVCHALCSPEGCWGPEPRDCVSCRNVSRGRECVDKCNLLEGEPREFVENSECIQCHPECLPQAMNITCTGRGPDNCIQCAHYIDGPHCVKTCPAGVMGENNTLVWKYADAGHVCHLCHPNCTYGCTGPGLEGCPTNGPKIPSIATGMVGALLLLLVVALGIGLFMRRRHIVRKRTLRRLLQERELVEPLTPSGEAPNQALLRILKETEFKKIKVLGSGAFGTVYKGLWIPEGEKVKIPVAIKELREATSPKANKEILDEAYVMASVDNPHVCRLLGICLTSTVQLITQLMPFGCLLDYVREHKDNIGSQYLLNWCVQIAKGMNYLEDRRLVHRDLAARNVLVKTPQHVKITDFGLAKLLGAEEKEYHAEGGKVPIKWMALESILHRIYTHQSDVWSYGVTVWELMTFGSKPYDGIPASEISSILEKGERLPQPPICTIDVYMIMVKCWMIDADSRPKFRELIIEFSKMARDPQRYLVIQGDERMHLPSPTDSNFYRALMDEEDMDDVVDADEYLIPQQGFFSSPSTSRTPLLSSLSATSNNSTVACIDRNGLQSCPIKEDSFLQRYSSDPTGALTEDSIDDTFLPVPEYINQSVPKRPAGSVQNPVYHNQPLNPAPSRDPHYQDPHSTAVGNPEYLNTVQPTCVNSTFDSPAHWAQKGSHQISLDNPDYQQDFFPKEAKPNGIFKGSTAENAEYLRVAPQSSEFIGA
Procedure: as §1, §2, §3, §4

PLK = PLK (Homo sapiens, UniProt P53350); settings: ATP close to KM; read-out: PLK inhibition, IC50
Procedure: as §1, §2, §3, §4

PDGFR-β = PDGFR-β (Homo sapiens, UniProt P09619); settings: ATP close to KM; read-out: PDGFR-β inhibition, IC50
PDGFR-β, sequence (P09619 33-1106): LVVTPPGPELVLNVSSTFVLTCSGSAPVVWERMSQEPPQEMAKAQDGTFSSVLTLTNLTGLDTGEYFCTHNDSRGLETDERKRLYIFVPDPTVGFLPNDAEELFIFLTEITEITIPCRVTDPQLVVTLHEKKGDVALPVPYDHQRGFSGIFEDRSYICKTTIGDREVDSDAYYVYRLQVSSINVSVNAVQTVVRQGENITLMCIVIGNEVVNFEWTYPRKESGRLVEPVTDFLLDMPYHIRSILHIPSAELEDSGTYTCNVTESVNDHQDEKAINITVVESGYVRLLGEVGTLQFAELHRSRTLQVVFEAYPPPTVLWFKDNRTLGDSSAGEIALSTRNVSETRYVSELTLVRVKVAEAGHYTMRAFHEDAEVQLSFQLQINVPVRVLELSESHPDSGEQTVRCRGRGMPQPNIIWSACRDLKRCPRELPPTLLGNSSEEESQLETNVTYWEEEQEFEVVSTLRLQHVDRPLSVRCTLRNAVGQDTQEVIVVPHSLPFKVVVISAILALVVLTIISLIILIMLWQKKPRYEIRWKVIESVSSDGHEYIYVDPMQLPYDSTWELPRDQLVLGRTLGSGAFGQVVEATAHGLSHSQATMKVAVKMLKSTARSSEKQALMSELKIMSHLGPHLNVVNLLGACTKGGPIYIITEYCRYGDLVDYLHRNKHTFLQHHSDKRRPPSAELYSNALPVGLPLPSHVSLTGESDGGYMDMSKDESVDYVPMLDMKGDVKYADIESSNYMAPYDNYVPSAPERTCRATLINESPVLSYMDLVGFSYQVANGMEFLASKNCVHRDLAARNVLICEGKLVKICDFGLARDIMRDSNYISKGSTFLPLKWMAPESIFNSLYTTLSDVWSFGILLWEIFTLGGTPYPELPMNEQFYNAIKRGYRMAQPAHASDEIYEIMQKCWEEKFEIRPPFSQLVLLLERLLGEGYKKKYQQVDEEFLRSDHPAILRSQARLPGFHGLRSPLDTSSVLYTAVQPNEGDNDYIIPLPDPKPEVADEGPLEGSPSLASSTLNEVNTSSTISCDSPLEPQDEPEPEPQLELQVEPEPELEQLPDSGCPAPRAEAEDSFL
Procedure: as §1, §2, §3, §4

Flt1 = Flt1 (Homo sapiens, UniProt P17948); settings: ATP close to KM; read-out: Flt1 inhibition, IC50
Flt1, sequence (P17948 27-1338): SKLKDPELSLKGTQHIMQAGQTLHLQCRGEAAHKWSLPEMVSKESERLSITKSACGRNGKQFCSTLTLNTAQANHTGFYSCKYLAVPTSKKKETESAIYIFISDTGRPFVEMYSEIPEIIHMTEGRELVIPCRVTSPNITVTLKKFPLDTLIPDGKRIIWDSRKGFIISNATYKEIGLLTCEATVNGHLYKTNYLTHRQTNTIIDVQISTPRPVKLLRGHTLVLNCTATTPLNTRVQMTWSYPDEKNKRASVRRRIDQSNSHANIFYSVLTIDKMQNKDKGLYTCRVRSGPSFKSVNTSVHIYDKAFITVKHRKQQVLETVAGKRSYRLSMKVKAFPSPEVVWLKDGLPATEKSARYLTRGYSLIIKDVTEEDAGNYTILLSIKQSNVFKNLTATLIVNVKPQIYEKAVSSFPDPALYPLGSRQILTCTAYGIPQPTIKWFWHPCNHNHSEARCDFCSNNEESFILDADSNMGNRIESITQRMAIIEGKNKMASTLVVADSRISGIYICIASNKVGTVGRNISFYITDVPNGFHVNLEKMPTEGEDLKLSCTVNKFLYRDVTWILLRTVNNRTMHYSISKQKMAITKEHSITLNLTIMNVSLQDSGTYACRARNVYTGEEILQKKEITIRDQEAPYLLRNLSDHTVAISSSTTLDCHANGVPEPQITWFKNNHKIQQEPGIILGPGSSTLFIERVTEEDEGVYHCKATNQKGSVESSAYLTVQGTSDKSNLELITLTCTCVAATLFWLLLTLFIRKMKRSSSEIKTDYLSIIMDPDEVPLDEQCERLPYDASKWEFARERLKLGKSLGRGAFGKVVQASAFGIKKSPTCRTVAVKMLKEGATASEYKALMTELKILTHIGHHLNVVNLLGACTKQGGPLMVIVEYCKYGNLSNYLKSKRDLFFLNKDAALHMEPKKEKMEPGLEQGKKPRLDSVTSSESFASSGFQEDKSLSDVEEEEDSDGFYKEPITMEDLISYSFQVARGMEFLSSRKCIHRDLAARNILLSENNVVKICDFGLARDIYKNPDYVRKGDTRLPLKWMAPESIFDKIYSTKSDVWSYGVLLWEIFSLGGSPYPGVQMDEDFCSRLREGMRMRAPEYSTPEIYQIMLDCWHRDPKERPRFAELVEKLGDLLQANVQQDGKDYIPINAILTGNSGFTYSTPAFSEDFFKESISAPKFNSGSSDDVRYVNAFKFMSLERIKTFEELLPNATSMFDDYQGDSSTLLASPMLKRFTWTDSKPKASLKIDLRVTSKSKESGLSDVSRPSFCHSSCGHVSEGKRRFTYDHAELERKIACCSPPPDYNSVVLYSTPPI
Procedure: as §1, §2, §3, §4

Fyn = Fyn (Homo sapiens, UniProt P06241); settings: ATP close to KM; read-out: Fyn inhibition, IC50
Fyn, sequence (P06241 whole entry): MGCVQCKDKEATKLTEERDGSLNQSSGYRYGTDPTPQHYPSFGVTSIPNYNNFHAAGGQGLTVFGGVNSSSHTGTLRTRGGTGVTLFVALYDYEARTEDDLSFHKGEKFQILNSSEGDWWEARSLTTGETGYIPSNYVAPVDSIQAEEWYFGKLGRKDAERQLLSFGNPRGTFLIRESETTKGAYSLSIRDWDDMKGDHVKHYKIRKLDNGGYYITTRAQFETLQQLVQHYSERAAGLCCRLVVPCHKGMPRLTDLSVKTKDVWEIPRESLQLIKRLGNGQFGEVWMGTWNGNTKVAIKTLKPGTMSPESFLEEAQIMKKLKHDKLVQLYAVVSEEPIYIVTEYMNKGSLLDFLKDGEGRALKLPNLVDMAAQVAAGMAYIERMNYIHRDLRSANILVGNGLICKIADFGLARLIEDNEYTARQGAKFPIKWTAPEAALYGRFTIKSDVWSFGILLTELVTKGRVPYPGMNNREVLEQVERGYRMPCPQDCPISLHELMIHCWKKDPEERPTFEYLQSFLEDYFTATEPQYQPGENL
Procedure: as §1, §2, §3, §4

PKA = PKA (Homo sapiens, UniProt P17612); settings: ATP close to KM; read-out: PKA inhibition, IC50
Procedure: as §1, §2, §3, §4

Cdc2, sequence (P06493 whole entry): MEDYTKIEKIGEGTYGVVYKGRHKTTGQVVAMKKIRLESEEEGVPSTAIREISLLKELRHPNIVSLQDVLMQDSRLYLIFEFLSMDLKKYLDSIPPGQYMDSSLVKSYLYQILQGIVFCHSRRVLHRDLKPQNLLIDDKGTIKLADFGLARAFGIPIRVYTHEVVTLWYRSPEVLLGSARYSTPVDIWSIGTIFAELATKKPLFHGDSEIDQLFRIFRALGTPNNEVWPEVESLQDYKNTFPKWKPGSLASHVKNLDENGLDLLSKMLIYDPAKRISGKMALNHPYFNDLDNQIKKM
Cdc2, sequence (P14635 whole entry partner): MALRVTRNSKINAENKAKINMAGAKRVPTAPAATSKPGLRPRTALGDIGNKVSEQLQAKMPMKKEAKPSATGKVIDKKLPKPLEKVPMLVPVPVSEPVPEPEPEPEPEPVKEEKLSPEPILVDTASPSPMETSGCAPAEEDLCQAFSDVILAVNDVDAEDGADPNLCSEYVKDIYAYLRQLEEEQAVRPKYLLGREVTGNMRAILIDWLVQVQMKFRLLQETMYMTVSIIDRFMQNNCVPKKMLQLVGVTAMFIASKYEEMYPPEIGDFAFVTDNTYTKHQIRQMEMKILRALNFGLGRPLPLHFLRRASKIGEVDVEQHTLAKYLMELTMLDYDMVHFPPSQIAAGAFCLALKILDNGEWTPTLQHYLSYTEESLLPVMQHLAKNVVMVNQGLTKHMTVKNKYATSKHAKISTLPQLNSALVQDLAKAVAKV

Compound: NC(=O)c1nc(-c2cccc3ccccc23)cnc1N [Example 2, 3-Amino-6-naphthalen-1-ylpyrazine-2-carboxamide]
- IC50 (Cdc2): ≥ 10000 nM
- IC50 (MAP4K3): < 50 nM
- IC50 (EGFR): ≥ 10000 nM
- IC50 (PLK): 1000 to 10000 nM
- IC50 (PDGFR-β): 50 to 1000 nM
- IC50 (Flt1): 50 to 1000 nM
- IC50 (Fyn): 1000 to 10000 nM
- IC50 (PKA): 1000 to 10000 nM
